In data set [1] the test system is Diaprepes abbreviatus antenna (male and female). Briefly: gas chromatograph-coupled electroantennogram detection (GC-EAD) of antennal response. The note with it: for antennal response (GC-EAD) to peaks of headspace extract: hexane extract of headspace volatiles from adult males and citrus leaves (FIG. 2); for antennal response (GC-EAD): male and female antennae, 50 ng linalool and 100 ng synthetic compound in hexane (FIG. 4). The source says:
In a first assay employed to find an attractive chemical of insect origin, a gas chromatograph-coupled electroantennogram detection (GC-EAD) system was used to analyze male aeration samples. This system included an Agilent 7890A GC equipped with a split/splitless injector, an HP-1 capillary column (approximately 30 m×0.32 mm×0.25 μm, Agilent Technologies, Inc., Santa Clara, Calif., USA), a post column glass Y-tube (Supelco, Bellefonte, Pa., USA) splitter for dividing column effluent in an approximately 1:1 ratio between a flame ionization detector (FID) and a heated (200° C.) EAD transfer line. Two lengths of deactivated column (approximately 0.32 mm ID) were used to carry effluent to the FID and EAD port after the split. At the start of GC-EAD runs, the GC oven temperature was held at about 35° C. for 3 minutes and then increased to about 260° C. at a rate of about 15° C./min and held at about 260° C. for about 10 min. Injector and FID temperatures were set at about 220° C. and about 300° C., respectively. Splitless injection was used with helium as the carrier gas at a flow rate of about 2.3 ml/min. A heated transfer line emptied into a charcoal-filtered, humidified air stream (about 200 ml/min at about 30 cm/sec) that carried the effluent over an antennal preparation. The antennal preparation can be made by plucking the antenna from either a male or female insect (grasping it firmly at the base of the antenna near the head with fine forceps) and placing the antenna between two metal electrodes of a Universal EAG probe, to which small amounts of salt-free electrode gel (Spectra 360, Parker Laboratories, Fairfield, N.J., USA) had been applied. The probe was connected to a type PRG-2 amplifier (Universal EAG probe, Syntech, Hilversum, The Netherlands). The humidified air stream was directed to pass over the antennal preparation generating a signal. […] […] […] […] Antennae from male and female D. abbreviatus were used as detectors to confirm antennal response to the synthetic compound.

For data set [2] the test system is unchanged. The note with it: used as co-injected control for antenna viability; cited from earlier work.
A short description of data set [3]: stability of the pheromone (lactonization; acid, heat, storage). Particulars: for stability in acidic medium (lactonization to 2): acid-catalyzed THP removal, CDCl3 with residual acidity. Format: physicochemical. How it is done:
At the core of the chosen synthetic route lies a stereoselective carbocupration of α,β-acetylenic esters that was exclusively cis-stereospecific when the reaction was conducted in THF at low temperatures (Corey and Katzenellenbogen 1969, Bourque et al. 1999, Drew et al. 1999). However, a conjugate addition of a heterocuprate, formed in situ from isopropylmagnesium bromide and copper(I) iodide in the presence of N,N,N,N'-tetramethylethylenediamine ([…] et al. 1984), to the acetylenic ester (FIG. 1) proceeded with some loss of stereoselectivity resulting in a mixture of E and Z olefinic esters in an approximately 92:8 ratio. During acid-catalyzed removal of the tetrahydropyranyl (THP) protecting group, the ratio of 1E and 1Z dropped to approximately 86:14 and a considerable amount of lactone 2 was formed, thus indicating instability of the putative pheromone in acidic medium.

The test system of data set [4] is Diaprepes abbreviatus adults. Briefly: two-choice olfactometer behavioral bioassay. Format: in vivo. The note with it: for Number choosing A (air) / Number choosing B (odor source): A: air vs B: odor source; for No choice (number): moved to but remained in central arena; for No response (number): remained in inlet. How it is done: Behavioral response to the pheromone was tested in an olfactometer (Model 4C, ARS, Inc., Micanopy, Fla. USA) wherein individual weevils (starved for about 24 h) were placed in a glass inlet and allowed to walk upwards into the center of an arena with a balanced, filtered and humidified airflow from two arms oriented at 180° to each other and outfitted with glass reservoirs containing an odor source or blank. The assays were conducted in the dark between about 9 AM and 2 PM; each run was terminated when the weevil moved into one of the glass receptacles or when about 15 min had elapsed. Assays were run in the dark because of a strong phototropic response in this insect (Lapointe and Hall 2009). Weevil position was scored as no-response (remaining in the inlet), no-choice (moving to but remaining in the central arena) or choosing one of the two arms. Responses of unmated approximately 4 to 6-week-old males and females were recorded to various odor sources: fresh young citrus leaves (flush), flush fed upon for about 24 hr by male D. abbreviatus, approximately 30 μg of methyl (E)-3-(2-hydroxyethyl)-4-methyl-2-pentenoate in approximately 10:1 hexanes:ethyl acetate pipetted onto a glass slide, and a clean glass slide. All glass components of the olfactometer were thoroughly washed between runs with warm soap and water, rinsed with methanol and air-dried. Between replications of a given treatment, the arms of the olfactometer used for that treatment were switched to control for bias in the apparatus. The number of weevils choosing a treatment arm was compared with the control arm (clean air) by the G-test (Sokal and Rohlf 1994).

“Also recorded” adds a separate entry of the source.

Data on 6 compounds can be found in patent US8663621B2, “Identification and synthesis of a male-produced pheromone for the neotropical root weevil Diaperpes abbreviatus (coleoptera: curculionidae)” (The United States of America, as Represented by the …, priority 2012, dated 2014).

For the compound `CC(C)=CCC/C(C)=C/CO` (single isomer, unassigned) [geraniol, reference compound], the “antennal response (GC-EAD) to peaks of headspace extract” value (shortened to “antennal response (GC-EAD) to peaks”) in data set [1] is on record as “positive antennal responses”.

With `C=CC(C)(O)CCC=C(C)C` (single isomer, unassigned) [linalool, reference compound], the “antennal response, previously determined” value in data set [2] was “consistent antennal response”. In addition, in data set [1], the “antennal response (GC-EAD) to peaks” value was “positive antennal responses”; the “antennal response (GC-EAD)” value is “Both male and female antennae responded”.

`CC(C)=CCC/C(C)=C/C=O` [geranial, reference compound]: the “antennal response (GC-EAD) to peaks” value in data set [1] was “positive antennal responses”.

For the compound `CC(C)C1=CC(=O)OCC1` [lactone], in data set [1], the “antennal response (GC-EAD)” value is on record as “No antennal response; also recorded: Neither responded”.

Turning to `COC(=O)/C=C(\CCO)C(C)C` [methyl (E)-3-(2-hydroxyethyl)-4-methyl-2-pentenoate], the “stability in acidic medium (lactonization to 2)” value in data set [3] (listed as 1E) was “noticeable cyclization of 1E to 2”; in data set [3] (listed as putative pheromone) it was “instability”. For the same compound, the thermal stability result in data set [3] (preparative GC with conventional injection port) is recorded as “thermal instability”. Moreover, the storage stability result in data set [3] (purified sample, up to 25° C. in aprotic solvents (benzene, hexane, ethyl acetate)) is listed as “stores indefinitely”. In data set [1], the “antennal response (GC-EAD) to peaks” value is “elicit a response from male and female antennae”. For the same compound, the “antennal response (GC-EAD)” value in data set [1] is “Both male and female antennae responded”. Besides, the “Number choosing A (air)” value in data set [4] (female weevils) came to 17; in data set [4] (male weevils), 30. Moreover, the “Number choosing B (odor source)” value came out at 48 in data set [4] (female weevils) and 34 in data set [4] (male weevils). Also, the “No choice (number)” value in data set [4] (female weevils) is reported as 17; in data set [4] (male weevils), 20. Moreover, the “No response (number)” value in data set [4] (female weevils) came to 71; in data set [4] (male weevils) it was 69. In addition, the “preference for odor source versus clean air (in words)” value in data set [4] (female weevils, α=0.05, G-test) is reported as “consistently moved upwind more often”; in data set [4] (female weevils, α=0.05, G-test, listed as synthetic pheromone) it was “more often as compared to clean air”; in data set [4] (male weevils, listed as pheromone), “did not show a clear preference”; in data set [4] (male weevils, listed as synthetic pheromone), “no clear preference”.

As to `COC(=O)/C=C(/CCO)C(C)C` [methyl (Z)-3-(2-hydroxyethyl)-4-methyl-2-pentenoate], the “antennal response (GC-EAD)” value in data set [1] is “inactive”; in data set [1] (listed as Z isomer), “No antennal response; also recorded: Neither responded”.
